Results taken from ChEMBL document CHEMBL1126492, “Cytotoxicity of ent-udoteatrial diacetate and its analogues” (Bioorg Med Chem Lett, 1993).
Converted amounts (≈) assume the structure as drawn.

Tests used:
A549 = test: In vitro cytotoxicity against human lung carcinoma A-549 cell line; type: functional, cell-based
KB = test: In vitro cytotoxicity against human oral epidermoid carcinoma KB cell line; type: functional, cell-based

Row | SMILES | IC50 (A549) [µg/mL] | IC50 (KB) [µg/mL]
1 | CC(=O)O[C@H]1O[C@@H]2O[C@@H](OC(C)=O)[C@@H]3CC[C@H]([C@@H]1C)[C@H]23 | > 25 | > 25
2 | CC(=O)O[C@H]1O[C@@H]2O[C@@H](OC(C)=O)[C@@H]3CC[C@H]([C@H]1CC/C=C(\C)CCC=C(C)C)[C@H]23 | 0.5 (≈ 1.19 µM) | 0.4 (≈ 0.951 µM)
3 | CC(=O)O[C@H]1O[C@@H]2O[C@@H](OC(C)=O)[C@@H]3CC[C@H]([C@@H]1CC/C=C(\C)CCC=C(C)C)[C@H]23 | 3.9 (≈ 9.27 µM) | 3.4 (≈ 8.08 µM)
4 | CC(=O)O[C@@H]1O[C@@H]2O[C@@H](OC(C)=O)[C@@H]3CC[C@H]([C@H]1CC/C=C(\C)CCC=C(C)C)[C@H]23 | 1.9 (≈ 4.52 µM) | 1.6 (≈ 3.8 µM)
5 | CC(=O)OC1O[C@@H]2O[C@@H](OC(C)=O)[C@@H]3CC[C@@H]([C@H]23)[C@H]1C (stereo not given in full) | > 25 | > 25
